Results from US20260022142A1, “MACROCYCLIC IMMUNOMODULATORS” (Bristol-Myers Squibb Company, priority 2022, published 2026).
Bridge positions count the residues as written; N and C are the ends. Square brackets hold non-standard residues; d marks the D form. Peptide text beside a SMILES is read from it. * marks the point of attachment. ξ: configuration not given here. Tyr(3,5-F2) = N[C@@H](Cc1cc(F)c(O)c(F)c1)C(=O)O; Phe(4-COOH) = N[C@@H](Cc1ccc(C(=O)O)cc1)C(=O)O; Bip = N[C@@H](Cc1ccc(-c2ccccc2)cc1)C(=O)O; Phe(3-Me) = Cc1cccc(C[C@H](N)C(=O)O)c1; Val(3-OH) = CC(C)(O)[C@H](N)C(=O)O; 4Pal = N[C@@H](Cc1ccncc1)C(=O)O; Cha = N[C@@H](CC1CCCCC1)C(=O)O; Cit = NC(=O)NCCC[C@H](N)C(=O)O; Thr(3ξ) = CC(O)[C@H](N)C(=O)O; Carboxymethyl = O=C(O)C*; Orn = NCCC[C@H](N)C(=O)O; Aun = NCCCCCCCCCCC(=O)O; Dab = NCC[C@H](N)C(=O)O; Nva = CCC[C@H](N)C(=O)O; Dap = NC[C@H](N)C(=O)O; AEEA = NCCOCCOCC(=O)O

biological target: T1, PD-1/PD-L1 interaction (PE-labeled human PD-L1-Ig binding to Jurkat cell line over-expressing human PD-1) (Homo sapiens, UniProt Q15116); test: Jurkat-PD-1 Cell Binding High-Content Screening Assay (CBA); type: cell-based; settings: Jurkat cell line over-expressing human PD-1; PE-labeled PD-L1-Ig 20 nM final; read-out: Jurkat hPD1-PDL1 IC50
T1 construct: expressed in transfected cells; host or cells: Jurkat
How it was run: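 Binding of fluorescent PD-L1-Ig (phycoerythrin on Ig tag, 20 nM final, 1 h) measured by high-content imaging of fixed, Hoechst-counterstained Jurkat-hPD-1 cells. Compound added 2 h at 37° C beforehand, in DMEM with 10% fetal calf serum.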

T1 sequence (Q15116 25-288): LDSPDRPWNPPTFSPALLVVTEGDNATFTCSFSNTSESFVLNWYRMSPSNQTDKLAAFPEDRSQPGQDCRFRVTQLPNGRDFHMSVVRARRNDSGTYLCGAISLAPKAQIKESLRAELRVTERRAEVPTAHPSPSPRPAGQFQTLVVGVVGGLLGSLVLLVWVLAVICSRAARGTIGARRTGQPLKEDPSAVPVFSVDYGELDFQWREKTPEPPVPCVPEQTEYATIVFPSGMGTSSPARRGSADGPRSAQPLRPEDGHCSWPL

SMILES | IC50 [µM]
CC(C)C[C@@H]1NC(=O)[C@H](Cc2c[nH]c3ccccc23)NC(=O)[C@H](CC(=O)O)NC(=O)[C@H](Cc2ccc(OCC(=O)O)cc2)NC(=O)[C@H](C(C)O)NC(=O)CSC[C@@H](C(=O)N[C@@H](CCN)C(=O)NCCCCCCCCCCC(=O)O)NC(=O)[C@H](CCCCN)NC(=O)[C@H](C(C)O)NC(=O)[C@H](CC2CCCCC2)NC(=O)[C@H](CCN)NC(=O)[C@@H](CC(C)C)NC(=O)[C@H](CCCN)NC(=O)[C@H](Cc2ccc(O)cc2)NC(=O)[C@H](Cc2ccc(-c3ccccc3)cc2)NC1=O (stereo partly drawn) [Compound 3694] ({CH2CO}-[Thr(3ξ)]Y(Carboxymethyl)DWL[Bip]Y[Orn][dL][Dab][Cha][Thr(3ξ)]KC[Dab][Aun]-OH; thioether N-14) | 0.0728
Cc1cccc(C[C@@H]2NC(=O)[C@H](CC(=O)O)NC(=O)[C@H](Cc3ccc(OCC(=O)O)cc3)NC(=O)[C@H](CC3CCCCC3)NC(=O)CSC[C@@H](C(=O)N[C@@H](CCN)C(=O)NCCOCCOCC(=O)NCCCCCCCCCCC(=O)O)NC(=O)[C@H](CO)NC(=O)[C@H](C(C)(C)O)NC(=O)[C@H](CC3CCCCC3)NC(=O)[C@H](CCN)NC(=O)[C@@H](CC(C)C)NC(=O)[C@H](CCCN)NC(=O)[C@H](Cc3ccc(OCC(=O)O)cc3)NC(=O)[C@H](Cc3ccc(-c4ccccc4)cc3)NC(=O)[C@H](Cc3ccc(OCC(=O)O)cc3)NC2=O)c1 [Compound 1263] ({CH2CO}-[Cha]Y(Carboxymethyl)D[Phe(3-Me)]Y(Carboxymethyl)[Bip]Y(Carboxymethyl)[Orn][dL][Dab][Cha][Val(3-OH)]SC[Dab][AEEA][Aun]-OH; thioether N-14) | 0.0056
Cc1cccc(C[C@@H]2NC(=O)[C@H](CC(=O)O)NC(=O)[C@H](Cc3ccc(OCC(=O)O)cc3)NC(=O)[C@H](CN)NC(=O)CSC[C@@H](C(=O)N[C@@H](CCN)C(=O)NCCOCCOCC(=O)NCCCCCCCCCCC(=O)O)NC(=O)[C@H](CCCN)NC(=O)[C@H](C(C)C)NC(=O)[C@H](CC3CCCCC3)NC(=O)[C@H](CCN)NC(=O)[C@@H](CC(C)C)NC(=O)[C@H](CCCN)NC(=O)[C@H](Cc3ccc(O)cc3)NC(=O)[C@H](Cc3ccc(-c4ccccc4)cc3)NC(=O)[C@H](Cc3cc(F)c(O)c(F)c3)NC2=O)c1 [Compound 2076] ({CH2CO}-[Dap]Y(Carboxymethyl)D[Phe(3-Me)][Tyr(3,5-F2)][Bip]Y[Orn][dL][Dab][Cha]V[Orn]C[Dab][AEEA][Aun]-OH; thioether N-14) | 0.0084
Cc1cccc(C[C@@H]2NC(=O)[C@H](CC(=O)O)NC(=O)[C@H](Cc3ccc(OCC(=O)O)cc3)NC(=O)[C@H](Cc3ccncc3)NC(=O)CSC[C@@H](C(=O)N[C@@H](CCN)C(=O)NCCOCCOCC(=O)NCCOCCOCC(=O)NCCCCCCCCCCC(=O)O)NC(=O)[C@H](Cc3cnc[nH]3)NC(=O)[C@H](C(C)(C)O)NC(=O)[C@H](CC3CCCCC3)NC(=O)[C@H](CCN)NC(=O)[C@@H](CC(C)C)NC(=O)[C@H](CCCN)NC(=O)[C@H](Cc3ccc(C(=O)O)cc3)NC(=O)[C@H](Cc3ccc(-c4ccccc4)cc3)NC(=O)[C@H](Cc3ccc(C(=O)O)cc3)NC2=O)c1 [Compound 3742] ({CH2CO}-[4Pal]Y(Carboxymethyl)D[Phe(3-Me)][Phe(4-COOH)][Bip][Phe(4-COOH)][Orn][dL][Dab][Cha][Val(3-OH)]HC[Dab][AEEA][AEEA][Aun]-OH; thioether N-14) | 0.0017
CCC[C@@H]1NC(=O)CSC[C@@H](C(=O)N[C@@H](CCN)C(=O)NCCOCCOCC(=O)NCCCCCCCCCCC(=O)O)NC(=O)[C@H](CCC(=O)O)NC(=O)[C@H](CO)NC(=O)[C@H](CC2CCCCC2)NC(=O)[C@H](CCN)NC(=O)[C@@H](CC(C)C)NC(=O)[C@H](CCCN)NC(=O)[C@H](Cc2ccc(OCC(=O)O)cc2)NC(=O)[C@H](Cc2ccc(-c3ccccc3)cc2)NC(=O)[C@H](Cc2ccc(OCC(=O)O)cc2)NC(=O)[C@H](Cc2cccc(C)c2)NC(=O)[C@H](CC(=O)O)NC(=O)[C@H](Cc2ccc(OCC(=O)O)cc2)NC1=O [Compound 3807] ({CH2CO}-[Nva]Y(Carboxymethyl)D[Phe(3-Me)]Y(Carboxymethyl)[Bip]Y(Carboxymethyl)[Orn][dL][Dab][Cha]SEC[Dab][AEEA][Aun]-OH; thioether N-14) | 0.0204

Further lines, results first:

IC50 [µM] | SMILES
0.201 | Cc1cccc(C[C@@H]2NC(=O)[C@H](CC(=O)O)NC(=O)[C@H](Cc3ccc(OCC(=O)O)cc3)NC(=O)[C@H](Cc3ccccc3)NC(=O)CSC[C@@H](C(=O)N[C@@H](CCN)C(=O)NCCCCCCCCCCC(=O)O)NC(=O)[C@H]([C@@H](C)O)NC(=O)[C@H](C(C)C)NC(=O)[C@H](CC3CCCCC3)NC(=O)[C@H](CCN)NC(=O)[C@@H](CC(C)C)NC(=O)[C@H](CCCN)NC(=O)[C@H](CCCNC(N)=O)NC(=O)[C@H](Cc3ccc(-c4ccccc4)cc3)NC(=O)[C@H](C(C)C)NC2=O)c1 [Compound 2825] ({CH2CO}-FY(Carboxymethyl)D[Phe(3-Me)]V[Bip][Cit][Orn][dL][Dab][Cha]VTC[Dab][Aun]-OH; thioether N-14)
0.0135 | Cc1cccc(C[C@@H]2NC(=O)[C@H](CC(=O)O)NC(=O)[C@H](Cc3ccc(OCC(=O)O)cc3)NC(=O)[C@H](CN)NC(=O)CSC[C@@H](C(=O)N[C@@H](CN)C(=O)NCCCCCCCCCCC(=O)O)NC(=O)[C@H]([C@@H](C)O)NC(=O)[C@H](C(C)C)NC(=O)[C@H](CC3CCCCC3)NC(=O)[C@H](CCN)NC(=O)[C@@H](CC(C)C)NC(=O)[C@H](CCCN)NC(=O)[C@H](CCCNC(N)=O)NC(=O)[C@H](Cc3ccc(-c4ccccc4)cc3)NC(=O)[C@H](C(C)C)NC2=O)c1 [Compound 1065] ({CH2CO}-[Dap]Y(Carboxymethyl)D[Phe(3-Me)]V[Bip][Cit][Orn][dL][Dab][Cha]VTC[Dap][Aun]-OH; thioether N-14)
0.0287 | Cc1cccc(C[C@@H]2NC(=O)[C@H](CC(=O)O)NC(=O)[C@H](Cc3ccncc3)NC(=O)[C@H](Cc3ccc(OCC(=O)O)cc3)NC(=O)CSC[C@@H](C(=O)NCCOCCOCC(=O)N[C@@H](CN)C(=O)NCCCCCCCCCCC(=O)O)NC(=O)[C@H]([C@@H](C)O)NC(=O)[C@H](C(C)C)NC(=O)[C@H](CC3CCCCC3)NC(=O)[C@H](CCN)NC(=O)[C@@H](CC(C)C)NC(=O)[C@H](CCCN)NC(=O)[C@H](C(C)C)NC(=O)[C@H](Cc3ccc(-c4ccccc4)cc3)NC(=O)[C@H](C(C)C)NC2=O)c1 [Compound 1169] ({CH2CO}-Y(Carboxymethyl)[4Pal]D[Phe(3-Me)]V[Bip]V[Orn][dL][Dab][Cha]VTC[AEEA][Dap][Aun]-OH; thioether N-14)
0.0098 | Cc1cccc(C[C@@H]2NC(=O)[C@H](CC(=O)O)NC(=O)[C@H](Cc3ccc(OCC(=O)O)cc3)NC(=O)[C@H](C(C)O)NC(=O)CSC[C@@H](C(=O)N[C@H](CC(N)=O)C(=O)NCCCCCCCCCCC(=O)O)NC(=O)[C@H](CCC(N)=O)NC(=O)[C@H](C(C)C)NC(=O)[C@H](CC3CCCCC3)NC(=O)[C@H](CCN)NC(=O)[C@@H](CC(C)C)NC(=O)[C@H](CCCN)NC(=O)[C@H](Cc3ccc(O)cc3)NC(=O)[C@H](Cc3ccc(-c4ccccc4)cc3)NC(=O)[C@H](C(C)C)NC2=O)c1 (stereo partly drawn) [Compound 3428] ({CH2CO}-[Thr(3ξ)]Y(Carboxymethyl)D[Phe(3-Me)]V[Bip]Y[Orn][dL][Dab][Cha]VQC[dN][Aun]-OH; thioether N-14)
